{"source": "patent EP4559919A1", "about": "“TRICYCLIC-CONTAINING MACROCYCLIC COMPOUND AND USE THEREOF” (Medshine Discovery Inc., priority 2022, dated 2024)", "key": {"ALK(G1202R/L1196M)": {"target": "T1, ALK(G1202R/L1196M) (Homo sapiens, UniProt Q9UM73, G1202R/L1196M)", "T1 construct": "purchased Carna", "T1 sequence (Q9UM73 19-1620 L1196M/G1202R)": "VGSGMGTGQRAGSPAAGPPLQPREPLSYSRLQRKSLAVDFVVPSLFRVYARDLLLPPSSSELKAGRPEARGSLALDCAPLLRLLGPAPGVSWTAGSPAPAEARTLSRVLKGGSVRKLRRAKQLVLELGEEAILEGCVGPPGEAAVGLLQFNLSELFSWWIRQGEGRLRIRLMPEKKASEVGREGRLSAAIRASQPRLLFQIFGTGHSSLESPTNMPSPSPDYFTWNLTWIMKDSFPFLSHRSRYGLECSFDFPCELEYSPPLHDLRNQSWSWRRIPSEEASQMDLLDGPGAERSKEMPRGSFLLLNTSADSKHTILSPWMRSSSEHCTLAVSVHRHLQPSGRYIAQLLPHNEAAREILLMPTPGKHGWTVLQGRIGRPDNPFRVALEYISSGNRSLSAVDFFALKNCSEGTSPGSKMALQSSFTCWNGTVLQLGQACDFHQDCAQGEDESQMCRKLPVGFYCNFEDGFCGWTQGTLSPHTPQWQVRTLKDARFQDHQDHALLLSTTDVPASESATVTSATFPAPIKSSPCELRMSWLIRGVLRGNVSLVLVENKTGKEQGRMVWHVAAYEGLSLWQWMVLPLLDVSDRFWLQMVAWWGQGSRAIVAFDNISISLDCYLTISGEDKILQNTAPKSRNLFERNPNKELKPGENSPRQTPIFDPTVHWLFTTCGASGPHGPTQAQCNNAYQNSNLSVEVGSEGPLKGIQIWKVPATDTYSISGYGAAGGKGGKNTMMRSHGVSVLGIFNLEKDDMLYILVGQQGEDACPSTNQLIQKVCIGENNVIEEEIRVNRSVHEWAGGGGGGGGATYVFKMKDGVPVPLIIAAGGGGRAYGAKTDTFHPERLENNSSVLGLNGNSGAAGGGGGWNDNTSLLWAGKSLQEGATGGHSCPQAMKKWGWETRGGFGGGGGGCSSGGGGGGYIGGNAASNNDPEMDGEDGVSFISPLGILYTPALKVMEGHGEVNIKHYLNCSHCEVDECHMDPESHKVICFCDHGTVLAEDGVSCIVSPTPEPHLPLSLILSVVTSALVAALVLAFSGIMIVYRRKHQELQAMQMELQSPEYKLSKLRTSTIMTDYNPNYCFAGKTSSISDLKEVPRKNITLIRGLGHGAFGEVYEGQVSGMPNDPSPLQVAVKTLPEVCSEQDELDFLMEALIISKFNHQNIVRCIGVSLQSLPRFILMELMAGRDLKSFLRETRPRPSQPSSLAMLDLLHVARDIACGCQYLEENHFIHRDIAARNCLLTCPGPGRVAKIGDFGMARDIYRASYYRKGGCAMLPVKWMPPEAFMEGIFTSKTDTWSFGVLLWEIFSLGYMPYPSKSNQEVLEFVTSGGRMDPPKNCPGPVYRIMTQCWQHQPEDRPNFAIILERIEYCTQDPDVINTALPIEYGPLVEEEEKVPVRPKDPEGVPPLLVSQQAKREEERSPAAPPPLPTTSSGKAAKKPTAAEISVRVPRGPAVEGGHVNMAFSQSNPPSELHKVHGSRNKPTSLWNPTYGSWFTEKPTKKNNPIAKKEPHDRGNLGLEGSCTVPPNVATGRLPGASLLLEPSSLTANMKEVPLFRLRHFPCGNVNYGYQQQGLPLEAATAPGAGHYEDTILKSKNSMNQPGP", "assay": "In vitro kinase inhibitory activity assay, Experimental method 2 (ADP-Glo)", "format": "biochemical", "settings": "Experimental method 2; ATP 5.0 µM, substrate IGF1; read-out: Kinase half maximal inhibitory concentration IC50 ALK^G1202R/L1196M"}, "CYP2D6": {"target": "T2, CYP2D6 (Homo sapiens, UniProt P10635)", "T2 construct": "Mixed human liver microsomes (HLM) purchased from Corning Inc; tissue Corning Inc; host or cells: pooled human liver microsomes", "assay": "Cytochrome P450 isozyme inhibitory activity test (human liver microsomes)", "format": "in vitro ADME", "settings": "human liver microsomes 0.1 mg/mL"}, "CYP2C19": {"target": "T3, CYP2C19 (Homo sapiens, UniProt P33261)", "T3 construct": "Mixed human liver microsomes (HLM) purchased from Corning Inc; tissue Corning Inc; host or cells: pooled human liver microsomes", "assay": "Cytochrome P450 isozyme inhibitory activity test (human liver microsomes)", "format": "in vitro ADME", "settings": "human liver microsomes 0.1 mg/mL"}, "[1]": {"test_system": "Ba/F3-EML4-ALK-G1202R/L1196M", "assay": "Anti-proliferative activity test on Ba/F3 cell lines (CellTiter-Glo)", "format": "cell-based", "settings": "Ba/F3 EML4-ALK-G1202R-L1196M; 72 hours; read-out: Half maximal inhibitory concentration IC50 for cells Ba/F3-EML4-ALK-G1202R/L1196 M", "method_in_brief": "(§1)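 Cells (2000/well) were exposed for 72 h at 37°C, 5% CO2, to an 8-point 3-fold series (1000× plate starting at 1 µM), with 0.1% DMSO final. Viability was read by CellTiter-Glo luminescence. Inhibition was normalised to DMSO (Max) and cell-free (Min) controls, and IC50 was taken from the curves.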"}, "Ba/F3-TEL-TRKB": {"test_system": "Ba/F3-TEL-TRKB", "assay": "Anti-proliferative activity test on Ba/F3 cell lines (CellTiter-Glo)", "format": "cell-based", "settings": "Mus musculus, BaF3; 72 hours; read-out: Half maximal inhibitory concentration IC50 for cells Ba/F3-TEL-TRKB", "method_in_brief": "as §1"}}}
{"molecule": "Cc1nn2cc3c4nc2c1C(=O)NC1(CC1)COc1ccc(F)cc1CN4[C@H](C(F)F)CO3", "note": "[Compound 016]", "values": [{"measurement": "IC50", "setting": "ALK(G1202R/L1196M)", "result": 0.9, "unit": "nM"}, {"measurement": "IC50", "setting": "CYP2D6", "result": "> 50000", "unit": "nM"}, {"measurement": "IC50", "setting": "CYP2C19", "result": 22700, "unit": "nM"}, {"measurement": "IC50", "setting": "[1]", "result": 12.5, "unit": "nM"}, {"measurement": "IC50", "setting": "Ba/F3-TEL-TRKB", "result": 0.6, "unit": "nM"}]}
